Results published in publication PMC6130578, “Isolation and identification of three new chromones from the leaves of Pimenta dioica with cytotoxic, oestrogenic and anti-oestrogenic effects” (Pharmaceutical Biology, 2018).
pIC50: −log10 of the molar value.

Assays:
[1] = biological target: T1, full-length ERβ (Homo sapiens, UniProt Q92731); assay: Competitive radioligand oestrogen receptor binding assay (3H-estradiol); conditions: 0.5 nM 3H-estradiol; tested at 20–100 μg/mL
T1 construct: host or cells: Sf9 insect cells
T1 sequence (Q92731 whole entry): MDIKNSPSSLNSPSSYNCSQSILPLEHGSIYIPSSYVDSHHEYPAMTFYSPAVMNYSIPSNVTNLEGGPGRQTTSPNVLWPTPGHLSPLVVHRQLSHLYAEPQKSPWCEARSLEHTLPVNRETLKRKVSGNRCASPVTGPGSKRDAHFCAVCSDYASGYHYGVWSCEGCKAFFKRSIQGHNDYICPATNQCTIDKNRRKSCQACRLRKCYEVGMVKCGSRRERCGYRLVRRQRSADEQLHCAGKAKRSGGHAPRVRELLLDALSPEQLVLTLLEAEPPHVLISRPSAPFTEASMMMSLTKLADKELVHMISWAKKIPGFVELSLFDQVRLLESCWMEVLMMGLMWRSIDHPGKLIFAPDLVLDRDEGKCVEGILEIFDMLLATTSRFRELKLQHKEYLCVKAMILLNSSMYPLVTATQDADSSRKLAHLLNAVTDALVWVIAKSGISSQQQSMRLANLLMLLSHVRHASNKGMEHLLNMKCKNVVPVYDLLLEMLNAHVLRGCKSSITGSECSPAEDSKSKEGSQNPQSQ
Procedure: A competitive radioligand-binding assay using full-length ERβ was used in the bioassay-guided fractionation of the crude methanol extract. The assay was performed as previously described (Obourn et al. [1993]; Doyle et al. [2009]). Briefly, recombinant human oestrogen receptor from insect Sf9 cells (α or β) was incubated with the test sample (50 μg/mL) plus 0.5 nM 3H-estradiol at 4 °C overnight. At the completion of incubation, 100 μL of a 50% hydroxylapatite slurry (in […] Tris, pH 7.4, 1 mM EDTA, 1 mM EGTA) was added and allowed to bind the ER-ligand complex for 40 min. The hydroxylapatite was washed three times with 0.5 mL of 40 mM Tris, pH 7.4, 1 mM EDTA, 1 mM EGTA and 11 mM KCl. The hydroxylapatite pellets were suspended in 1 mL of ethanol and counted in 5 mL of scintillation fluid, and the receptor-bound 3H-estradiol was measured. […] The median inhibitory concentration of 1 was determined by testing at concentrations of 20–100 μg/mL. All tests were performed in triplicate, and the results were determined from three independent experiments.

[2] = tested on: oestrogen responsive SEAP reporter gene (ERE) in MCF-7 cells; assay: Oestrogen-responsive SEAP reporter gene assay in transfected MCF-7 cells; assay type: cell-based, human; conditions: for SEAP activity in combination with E2: 1 μM compound + 10 nM E2; for fold increase in SEAP expression / SEAP reporter gene expression/activity, compound alone: 1 μM; for fold increase in SEAP expression: compound alone; for SEAP reporter gene expression/activity, compound alone: vs. control
Procedure: In addition to the ERβ binding assay, oestrogenic activity was determined by an oestrogen-responsive reporter gene assay consisting of MCF-7 cells transfected with a construct containing a secreted alkaline phosphatase (SEAP) gene that is induced through an oestrogen response element (ERE). MCF-7 (HTB-22) human breast cancer cells (obtained from American Type Culture Collection, Manassas, VA) were maintained in Dulbecco’s modified Eagle’s medium containing 10% FBS and 100 U/mL penicillin and 100 μg/mL streptomycin in 75 cm^2 flasks. Forty-eight hours prior to transfection, the cells were maintained in phenol red free DMEM medium supplemented with 0.5% FCS, in a humidified atmosphere with 5% CO2 at 37 °C. For transfection, 0.5 × 10^5 cells were seeded per well of a 96-well plate in OPTI-MEM supplemented with dextran-charcoal stripped FBS. After 4 h, serum concentration was reduced to 1%. Prior to transfection, cells were washed with DMEM and incubated in phenol red-free OPTI-MEM without FBS as described by Nozawa et al. ([2005]).
The cells were transfected with the reporter vector pERE-TA-SEAP, coding for the SEAP gene (Clontech, Palo Alto, CA) (Cullen and Malim [1992]; Treeck et al. [2003]). MCF-7 cells were transfected using 0.5 μL Lipofectamine 2000 (Invitrogen, Carlsbad, CA), and 0.1 μg plasmid DNA including the SEAP vector per well of a 96-well plate according to the manufacturer’s instructions. As a negative control, cells were transfected with reporter vector pTA-SEAP2 using Lipofectamine 2000. After 12 h of transfection, the media were replaced with phenol-free Dulbecco’s modified Eagle’s medium containing 10% dextran-coated charcoal stripped FBS. Cells were treated with 1 μM 1–3 with and without 10 nM E2 or 1 μM ICI 182,780. Estradiol was used as the positive control and DMSO as the negative control. Cells were treated for 12 h, then the medium was harvested, centrifuged and 25 μL from each well was transferred to a new 96 well plate. The SEAP activity was measured using the Great EscAPe SEAP Chemiluminescence High-Throughput Detection Kit (Clontech, Palo Alto, CA) using a 96-well luminometer according to the manufacturer’s instructions. To assess novel mechanisms of action other than ER, we tested the extract and fractions in a HER2/neu tyrosine kinase assays (Barbacci et al. [2003]; HTScan HER2/ErbB2 kinase Assay Kit, Cell Signaling Tech., 96-well plates, high throughput), using the methods as described by the manufacturer.

[3] = tested on: MCF-7 cells; assay: Cell viability assay (CellTiter-Glo 2.0), MCF-7; assay type: cell-based; conditions: Homo sapiens, MCF7; MCF-7, 72 h; read-out: IC50 (cell growth)
Procedure: (§1) MCF-7 and AGS cells were seeded at 2.5 × 10^4 cells in 100 µL/well while NCI-N87 was seeded at 5.0 × 10^4 cells in 100 µL/well in opaque-walled 96-well plate. Control wells containing medium (supplemented with 10% FBS and 1% penicillin/streptomycin) without cells to determine background luminescence were also prepared. The cells were left to attach overnight in the plate. Culture medium was aspirated and fresh medium added to the wells before reconstituted extracts of P. dioica (methanol extract, 50% methanol fraction) and isolated compounds (1–3, and quercitrin) at 100, 50, 20, 10 and 5 µg/mL were added to experimental wells. Drug controls (5-fluorouracil and doxorubicin) and vehicle control (0.02% DMSO) wells were also prepared simultaneously, and the plate was incubated in a humidified incubator at 37 °C in an atmosphere of 5% CO2 for 72 h. At the end of the incubation period, the plate and its contents were equilibrated to room temperature for approximately 30 min. A 100 µL volume of CellTiter-Glo 2.0 Reagent (Promega Corporation, Madison, WI) was added to each well. The contents were mixed for 2 min on an orbital shaker to induce cell lysis and the plate was incubated at room temperature for 10 min to stabilize the luminescent signal. Luminescence signal was read using the Synergy HT Plate reader (Biotek, Winooski, VT) and Gen5 1.11 software. The IC50 defined as the concentration that causes 50% inhibition of cell growth after exposure to extract for 72 h was calculated using log (inhibitor) vs. normalized response analysis with GraphPad Prism 7 (GraphPad Software, Inc., La Jolla, CA).

[4] = tested on: AGS cells; assay: Cell viability assay (CellTiter-Glo 2.0), AGS; assay type: cell-based; conditions: Homo sapiens, 72 h, read-out: IC50 (cell growth)
Procedure: as §1

[5] = tested on: NCI-N87 cells; assay: Cell viability assay (CellTiter-Glo 2.0), NCI-N87; assay type: cell-based; conditions: Homo sapiens, NCI-N87, 72 h; read-out: IC50 (cell growth)
Procedure: as §1

[6] = tested on: caspase 8 in MCF-7 cells; assay: Caspase-Glo 8 apoptosis assay in MCF-7 cells; assay type: cell-based, human; conditions: compound 2 at IC50 concentration (55 µg/mL), 2 h
Procedure: MCF-7 cells were seeded in triplicate at a density of 3.0 × 10^4 cells in 100 µL/well in opaque-walled 96-well plates. The cells were left to attach overnight in the plate. Compound 2 at 55 µg/mL was added to the test wells. Caspase-Glo® 8 Reagents (Promega Corporation, Madison, WI) were prepared according to manufacturer’s instruction and allowed to equilibrate to room temperature. The test plates containing treated cells as well as controls were removed from the incubator after 2 h of incubation and allowed to equilibrate to room temperature. A 100 μL volume of Caspase-Glo® 8 Reagent was added to each well of a 96-well plate containing 100 μL of cell culture medium (blank), non-treated cells (negative control) in culture medium, and treated cells in culture medium. The contents of wells were gently mixed using a plate shaker at 300–500 rpm for 30 s and incubated at room temperature for 1 h. The luminescence of each sample was read using the Synergy HT Plate reader (Biotek, Winooski, VT) and Gen5 1.11 software.

[7] = tested on: MCF-7 cells; assay: ApoTox-Glo triplex assay (viability, cytotoxicity, caspase 3/7) in MCF-7 cells; assay type: cell-based, human; conditions: MCF-7, 55 µg/mL
Procedure: Ninety-six (96) well assay plates containing MCF-7 cells in medium at a density of 1.0 × 10^4 cells in 100 µL/well in triplicate were set up. […] Plates were incubated appropriately before addition of 20 μL of viability/cytotoxicity reagent containing both GF-AFC substrate and bis-AAF-R110 substrate to all wells and briefly mixed by orbital shaking (300–500 rpm for ∼30 s). Plates were incubated for 30 min at 37 °C and fluorescence was measured at 400ex/505em (viability) and 485ex/520em (cytotoxicity). A 100 μL volume of Caspase-Glo® 3/7 reagent was added to all wells, briefly mixed by orbital shaking (300–500 rpm for ∼30 s), and incubated for 30 min at room temperature. Luminescence was measured using the Synergy HT Plate reader (Biotek, Winooski, VT) and Gen 5 1.11 software to detect caspase activation.

[8] = tested on: Bcl-2 and Bax mRNA in MCF-7 cells; assay: qPCR for apoptotic gene expression in MCF-7 cells; assay type: cell-based, human; conditions: MCF-7, at the IC50, 24 h
Procedure: MCF-7 cells were seeded at a density of 1 × 10^6 cells per well in a six-well plate and incubated overnight for cell attachment. […] Vehicle-treated control cells served as the negative control. The concentration and quality of RNA were determined by measuring absorbance at 260 nm and 280 nm on SynergyHT Take 3 session (Biotek, Winooski, VT) and Gen5 1.11 software.
Total RNA was reverse transcribed and amplified using Power SYBR Green RNA-to-CT 1-step kit (Applied Biosystems, Foster City, CA) as described by manufacturer using a Step-One Plus Real Time PCR System (Applied Biosystem, Foster City, CA). Briefly, each reaction was performed in triplicate in a 10 μL volume containing Power SYBR Green RT-PCR Mix (2×), 200 nM of each primers, RT Enzyme Mix (125×) and 100 ng RNA. The cycling conditions were as follows: 48 °C for 30 min, 95 °C for 10 min, followed by 50 cycles of 95 °C for 15 s and 60 °C for 1 min. PCR reaction specificity was confirmed by melt curve analysis at 95 °C for 15 s, 60 °C for 15 s, 95 °C for 15 s. The quantitation of gene expression was performed using β-actin as an endogenous control and relative to the calibrator (control cells) using the ΔΔCt method. Melting curves for each primer set were performed prior to the use of the primers.

| Structure (SMILES) | pIC50 [1] | SEAP activity in combination with E2 [2] | SEAP expression in the presence of ICI 182,780 ([2]; 1 μM compound + 1 μM ICI 182,780) | fold increase in SEAP expression [2] | SEAP reporter gene expression/activity, compound alone [2] | IC50 [3] | IC50 [4] | IC50 [5] | caspase 8 activity [6] | apoptosis in MCF-7 cells [7] | Bax mRNA expression [8] | Bax/Bcl-2 ratio [8] | Bcl-2 mRNA expression [8] |
| --- | --- | --- | --- | --- | --- | --- | --- | --- | --- | --- | --- | --- | --- |
| Cc1c(O)c(C)c2oc(Oc3ccc(O)cc3)cc(=O)c2c1O [Compound 1, 2-(p-hydroxyphenoxy)-6,8-dimethyl-5,7-dihydroxychromone] | 3.41 | did not enhance SEAP activity | attenuated | 6.2 fold | significantly enhanced | > 100 µg/mL | > 100 µg/mL | > 100 µg/mL | – | – | – | – | – |
| O=c1[nH]cc(F)c(=O)[nH]1 [Compound 5FU, 5-fluorouracil, reference compound] | – | – | – | – | – | 1.37 µg/mL | 18.6 µg/mL | 0.097 µg/mL | – | – | – | – | – |
| C[C@@H]1O[C@@H](Oc2c(-c3ccc(O)c(O)c3)oc3cc(O)cc(O)c3c2=O)[C@H](O)[C@H](O)[C@H]1O [Quercitrin] | – | some significant anti-oestrogenic effects | – | – | neither quercitrin nor 3 alone significantly enhanced SEAP activity | > 100 µg/mL | > 100 µg/mL | > 100 µg/mL | – | – | – | – | – |
| Cc1c(O)c(C)c2oc(-c3ccc(OC4OC(CO)C(O)C(O)C4O)cc3)cc(=O)c2c1O (stereo not shown) [Compound 2, syzalterin-4′-O-glucopyranose] | – | – | – | 6.0 fold | significantly increased SEAP activity | 54.3 µg/mL | 38.1 µg/mL | 51.2 µg/mL | weakly enhanced | induced apoptosis | little effects | ~3.5 | decreased |
| COc1cccc2c1C(=O)c1c(O)c3c(c(O)c1C2=O)C[C@@](O)(C(=O)CO)C[C@@H]3O[C@H]1C[C@H](N)[C@H](O)[C@H](C)O1 [Doxo, doxorubicin, reference compound] | – | – | – | – | – | – | 0.079 µg/mL | 0.048 µg/mL | – | – | – | – | – |
